Measurements: article PMC5218480 (PLoS ONE, 2017)

Tested on: MV-4-11 cells
Assay: Gene expression microarray analysis (Affymetrix PrimeView) and GSEA
Format: cell-based, human
Set-up: RFU PODN (11730768_x_at) / Fold change /veh PODN (11730768_x_at) / RFU LINC00158 (11744669_a_at) / Fold change /veh LINC00158 (11744669_a_at) / RFU DUSP10 (11751237_a_at) / Fold change /veh DUSP10 (11751237_a_at) / RFU ID3 (11757404_x_at) / Fold change /veh ID3 (11757404_x_at) / RFU PLEKHG5 (11737974_s_at) / Fold change /veh PLEKHG5 (11737974_s_at) / RFU LRRC4B (11730491_at) / Fold change /veh LRRC4B (11730491_at) / RFU GIMAP4 (11747438_a_at) / Fold change /veh GIMAP4 (11747438_a_at) / RFU KRT8 (11758183_x_at) / Fold change /veh KRT8 (11758183_x_at) / RFU CNN1 (11734310_a_at) / Fold change /veh CNN1 (11734310_a_at) / RFU VPS37D (11726825_at) / Fold change /veh VPS37D (11726825_at) / RFU C10orf10 (11716522_x_at) / Fold change /veh C10orf10 (11716522_x_at) / RFU KIR2DL2 /// KIR2DL4 /// KIR2DL5A /// KIR2DL5B /// KIR2DS1 /// KIR2DS2 /// KIR2DS3 /// KIR2DS4 /// KIR3DL3 /// KIR3DL3 /// KIR3DS1 (11738374_at) / Fold change /veh KIR2DL2 /// KIR2DL4 /// KIR2DL5A /// KIR2DL5B /// KIR2DS1 /// KIR2DS2 /// KIR2DS3 /// KIR2DS4 /// KIR3DL3 /// KIR3DL3 /// KIR3DS1 (11738374_at) / RFU C1QL1 (11718748_at) / Fold change /veh C1QL1 (11718748_at) / RFU TMPRSS4 (11747572_a_at) / Fold change /veh TMPRSS4 (11747572_a_at) / RFU HAMP (11756126_x_at) / Fold change /veh HAMP (11756126_x_at) / RFU RNFT2 (11725882_a_at) / Fold change /veh RNFT2 (11725882_a_at) / RFU NR4A2 (11747474_a_at) / Fold change /veh NR4A2 (11747474_a_at) / RFU ABCC12 (11746883_a_at) / Fold change /veh ABCC12 (11746883_a_at) / RFU TMEM136 (11760407_x_at) / Fold change /veh TMEM136 (11760407_x_at) / RFU CLDN22 /// WWC2 (11732394_at) / Fold change /veh CLDN22 /// WWC2 (11732394_at) / RFU HLA-DPB1 (11760878_x_at) / Fold change /veh HLA-DPB1 (11760878_x_at) / RFU SPINT1 (11716480_a_at) / Fold change /veh SPINT1 (11716480_a_at) / RFU GAP43 (11754022_s_at) / Fold change /veh GAP43 (11754022_s_at) / RFU A4GNT (11735810_at) / Fold change /veh A4GNT (11735810_at) / RFU PRB3 (11715151_x_at) / Fold change /veh PRB3 (11715151_x_at) / RFU TUBB4B (11761932_at) / Fold change /veh TUBB4B (11761932_at) / RFU CAPN14 (11732068_a_at) / Fold change /veh CAPN14 (11732068_a_at) / RFU TMCC2 (11721928_a_at) / Fold change /veh TMCC2 (11721928_a_at) / RFU IRGQ (11745062_a_at) / Fold change /veh IRGQ (11745062_a_at) / RFU FAM174B (11720279_a_at) / Fold change /veh FAM174B (11720279_a_at) / RFU TMPRSS4 (11748680_a_at) / Fold change /veh TMPRSS4 (11748680_a_at) / RFU FAM212B (11763350_a_at) / Fold change /veh FAM212B (11763350_a_at) / RFU PLEKHG5 (11743358_a_at) / Fold change /veh PLEKHG5 (11743358_a_at) / RFU ZSCAN30 (11745921_a_at) / Fold change /veh ZSCAN30 (11745921_a_at) / RFU CMKLR1 (11741424_a_at) / Fold change /veh CMKLR1 (11741424_a_at) / RFU LOC101060620 /// MAPK8IP1 (11723275_at) / Fold change /veh LOC101060620 /// MAPK8IP1 (11723275_at) / RFU SPTSSB (11747773_x_at) / Fold change /veh SPTSSB (11747773_x_at) / RFU PRSS12 (11739890_at) / Fold change /veh PRSS12 (11739890_at) / RFU BIN1 (11741810_x_at) / Fold change /veh BIN1 (11741810_x_at) / RFU WNT11 (11732464_a_at) / Fold change /veh WNT11 (11732464_a_at) / RFU C10orf10 (11716521_a_at) / Fold change /veh C10orf10 (11716521_a_at) / RFU C5orf56 (11738089_at) / Fold change /veh C5orf56 (11738089_at) / RFU CYB561 (11721691_x_at) / Fold change /veh CYB561 (11721691_x_at) / RFU ANKRD19P (11752326_a_at) / Fold change /veh ANKRD19P (11752326_a_at) / RFU OR2T12 /// OR2T33 /// OR2T8 (11738714_s_at) / Fold change /veh OR2T12 /// OR2T33 /// OR2T8 (11738714_s_at) / RFU VCAN (11748164_a_at) / Fold change /veh VCAN (11748164_a_at) / RFU JSRP1 (11732532_at) / Fold change /veh JSRP1 (11732532_at) / RFU KRTAP10-11 (11738290_x_at) / Fold change /veh KRTAP10-11 (11738290_x_at) / RFU MYO3A (11730013_a_at) / Fold change /veh MYO3A (11730013_a_at) / RFU EBF3 (11725865_a_at) / Fold change /veh EBF3 (11725865_a_at) / RFU CAMK2N1 (11719241_x_at) / Fold change /veh CAMK2N1 (11719241_x_at) / RFU C5orf56 (11738088_a_at) / Fold change /veh C5orf56 (11738088_a_at) / RFU OLFML3 (11715873_a_at) / Fold change /veh OLFML3 (11715873_a_at) / RFU LOC100653217 /// NTM (11731650_a_at) / Fold change /veh LOC100653217 /// NTM (11731650_a_at) / RFU MAPK11 (11762145_a_at) / Fold change /veh MAPK11 (11762145_a_at) / RFU FIZ1 (11724087_x_at) / Fold change /veh FIZ1 (11724087_x_at) / RFU OASL (11726364_x_at) / Fold change /veh OASL (11726364_x_at) / RFU SOX15 (11748057_x_at) / Fold change /veh SOX15 (11748057_x_at) / RFU CD79A (11719716_a_at) / Fold change /veh CD79A (11719716_a_at) / RFU HIST1H1D (11736915_at) / Fold change /veh HIST1H1D (11736915_at) / RFU CASKIN2 (11723855_a_at) / Fold change /veh CASKIN2 (11723855_a_at) / RFU LOC730098 (11760151_x_at) / Fold change /veh LOC730098 (11760151_x_at) / RFU OR4N2 (11742367_at) / Fold change /veh OR4N2 (11742367_at) / RFU PRRT2 (11749266_a_at) / Fold change /veh PRRT2 (11749266_a_at) / RFU SNX32 (11753110_a_at) / Fold change /veh SNX32 (11753110_a_at) / RFU CDHR5 (11726645_a_at) / Fold change /veh CDHR5 (11726645_a_at) / RFU RCAN1 (11760418_a_at) / Fold change /veh RCAN1 (11760418_a_at) / RFU FAM167A (11723789_a_at) / Fold change /veh FAM167A (11723789_a_at) / RFU FAM26E (11764081_at) / Fold change /veh FAM26E (11764081_at) / RFU ISYNA1 (11749810_s_at) / Fold change /veh ISYNA1 (11749810_s_at) / RFU ACY1 (11761880_at) / Fold change /veh ACY1 (11761880_at) / RFU 11764098_at / Fold change /veh 11764098_at / RFU SAMD14 (11745864_x_at) / Fold change /veh SAMD14 (11745864_x_at) / RFU NPB (11741838_a_at) / Fold change /veh NPB (11741838_a_at) / RFU TMPRSS6 (11731388_a_at) / Fold change /veh TMPRSS6 (11731388_a_at) / RFU KRTAP10-2 (11738614_at) / Fold change /veh KRTAP10-2 (11738614_at) / RFU ARHGAP8 /// PRR5-ARHGAP8 (11727945_x_at) / Fold change /veh ARHGAP8 /// PRR5-ARHGAP8 (11727945_x_at) / RFU KRTAP5-7 /// NADSYN1 (11734609_at) / Fold change /veh KRTAP5-7 /// NADSYN1 (11734609_at) / RFU RASL12 (11751679_a_at) / Fold change /veh RASL12 (11751679_a_at) / RFU CDKN2B (11736163_a_at) / Fold change /veh CDKN2B (11736163_a_at) / RFU PRF1 (11729649_at) / Fold change /veh PRF1 (11729649_at) / RFU, ZNF638 /// ZNF638-IT1 / Fold change vs veh, ZNF638 /// ZNF638-IT1 / RFU, PANK3 / Fold change vs veh, PANK3 / RFU, SH3YL1 / Fold change vs veh, SH3YL1 / RFU, ZEB2 / Fold change vs veh, ZEB2 / RFU, NRIP1 / Fold change vs veh, NRIP1 / RFU, PTTG1IP / Fold change vs veh, PTTG1IP / RFU, CAPN2 / Fold change vs veh, CAPN2 / RFU, MED14 / Fold change vs veh, MED14 / RFU, SNORA58 / Fold change vs veh, SNORA58 / RFU, C1orf63 / Fold change vs veh, C1orf63 / RFU, LRRFIP1 / Fold change vs veh, LRRFIP1 / RFU, NDUFAF7 / Fold change vs veh, NDUFAF7 / RFU, SLC12A2 / Fold change vs veh, SLC12A2 / RFU, IBTK / Fold change vs veh, IBTK / RFU, ESF1 / Fold change vs veh, ESF1 / Fold change vs veh, TMEM50B / RFU, TAOK1 / Fold change vs veh, TAOK1 / RFU, ACBD3 / Fold change vs veh, ACBD3 / RFU, TMA16 / Fold change vs veh, TMA16 / RFU, RWDD3 / Fold change vs veh, RWDD3 / RFU, BCAT1 / Fold change vs veh, BCAT1 / RFU, EDEM3 / Fold change vs veh, EDEM3 / RFU, TMEM33 / Fold change vs veh, TMEM33 / RFU, WDR75 / Fold change vs veh, WDR75 / RFU, AHCTF1 / Fold change vs veh, AHCTF1 / RFU, TFRC / Fold change vs veh, TFRC / RFU, ZDHHC17 / Fold change vs veh, ZDHHC17 / RFU, NOM1 / Fold change vs veh, NOM1 / RFU, ARL8B / Fold change vs veh, ARL8B / RFU, ZBTB11 / Fold change vs veh, ZBTB11 / RFU, TAMM41 / Fold change vs veh, TAMM41 / RFU, KIAA1704 /// LOC100996395 / Fold change vs veh, KIAA1704 /// LOC100996395 / RFU, ING1 / Fold change vs veh, ING1 / RFU, TRMT61B / Fold change vs veh, TRMT61B / RFU, FUBP3 / Fold change vs veh, FUBP3 / RFU, TP53 / Fold change vs veh, TP53 / RFU, TNKS2 / Fold change vs veh, TNKS2 / RFU, ZFP14 / Fold change vs veh, ZFP14 / RFU, ACTR2 / Fold change vs veh, ACTR2 / RFU, PPP3R1 / Fold change vs veh, PPP3R1 / RFU, PIK3R1 / Fold change vs veh, PIK3R1 / RFU, HNRNPA1 / Fold change vs veh, HNRNPA1 / RFU, RNF170 / Fold change vs veh, RNF170 / RFU, ZNF28 / Fold change vs veh, ZNF28 / RFU, RNGTT / Fold change vs veh, RNGTT / RFU, OGT / Fold change vs veh, OGT / RFU, BRD1 / Fold change vs veh, BRD1 / RFU, MARS / Fold change vs veh, MARS / RFU, ZNF655 / Fold change vs veh, ZNF655 / RFU, FAHD1 / Fold change vs veh, FAHD1 / RFU, BDP1 / Fold change vs veh, BDP1 / RFU, LRRCC1 / Fold change vs veh, LRRCC1 / RFU, ARID1A / Fold change vs veh, ARID1A / RFU, ZNF146 / Fold change vs veh, ZNF146 / RFU, ZNF330 / Fold change vs veh, ZNF330 / RFU, GPN3 / Fold change vs veh, GPN3 / RFU, C9orf123 / Fold change vs veh, C9orf123 / RFU, N4BP2L2 / Fold change vs veh, N4BP2L2 / RFU, ARFIP1 / Fold change vs veh, ARFIP1 / RFU, FAM179B / Fold change vs veh, FAM179B / RFU, BCL10 / Fold change vs veh, BCL10 / RFU, UHRF1BP1L / Fold change vs veh, UHRF1BP1L / RFU, BET1 / Fold change vs veh, BET1 / RFU, CNOT2 / Fold change vs veh, CNOT2 / RFU, ZNF268 / Fold change vs veh, ZNF268 / Fold change vs veh, ZNF507 / RFU, DGCR2 / Fold change vs veh, DGCR2 / RFU, WDSUB1 / Fold change vs veh, WDSUB1 / Fold change vs veh, HSP90B1 /// MIR3652 / RFU, ADSS / Fold change vs veh, ADSS / RFU, GK / Fold change vs veh, GK / RFU, ZNF148 / Fold change vs veh, ZNF148 / RFU, TAF9 / Fold change vs veh, TAF9 / RFU, SLC1A5 / Fold change vs veh, SLC1A5 / RFU, SLMO2 / Fold change vs veh, SLMO2 / RFU, ABCC4 / Fold change vs veh, ABCC4 / RFU, LOC101060439 /// RAP1B / Fold change vs veh, LOC101060439 /// RAP1B / RFU, RFX7 / Fold change vs veh, RFX7 / RFU, GTPBP10 / Fold change vs veh, GTPBP10 / RFU, CNEP1R1 / Fold change vs veh, CNEP1R1 / RFU, BIVM-ERCC5 /// ERCC5 / Fold change vs veh, BIVM-ERCC5 /// ERCC5 / RFU, ILF3 / Fold change vs veh, ILF3 / RFU 11762660_at / Fold change /veh 11762660_at / RFU VCAN (11757783_s_at) / Fold change /veh VCAN (11757783_s_at) / RFU DDX43 (11728927_at) / Fold change /veh DDX43 (11728927_at) / RFU KRT8 (11758188_x_at) / Fold change /veh KRT8 (11758188_x_at) / RFU NKD1 (11759106_at) / Fold change /veh NKD1 (11759106_at) / RFU SRD5A1 (11742802_a_at) / Fold change /veh SRD5A1 (11742802_a_at) / RFU TPSAB1 /// TPSB2 (11721975_s_at) / Fold change /veh TPSAB1 /// TPSB2 (11721975_s_at) / RFU GSTM3 (11746129_a_at) / Fold change /veh GSTM3 (11746129_a_at) / RFU IL23R (11737362_x_at) / Fold change /veh IL23R (11737362_x_at) / RFU TMEM51 (11727254_a_at) / Fold change /veh TMEM51 (11727254_a_at) / RFU PIWIL2 (11732686_x_at) / Fold change /veh PIWIL2 (11732686_x_at) / RFU ORM1 (11744905_x_at) / Fold change /veh ORM1 (11744905_x_at) / RFU CCDC152 (11743942_at) / Fold change /veh CCDC152 (11743942_at) / RFU ECM1 (11717891_a_at) / Fold change /veh ECM1 (11717891_a_at) / RFU IL23R (11748794_a_at) / Fold change /veh IL23R (11748794_a_at) / RFU TNFAIP8L3 (11732012_x_at) / Fold change /veh TNFAIP8L3 (11732012_x_at) / RFU MBOAT4 (11741988_at) / Fold change /veh MBOAT4 (11741988_at) / RFU 11764193_at / Fold change /veh 11764193_at / RFU TMEM53 (11763286_at) / Fold change /veh TMEM53 (11763286_at) / RFU MAGEB2 (11727129_at) / Fold change /veh MAGEB2 (11727129_at) / RFU TMEM200A (11744735_a_at) / Fold change /veh TMEM200A (11744735_a_at) / RFU CCDC152 (11751479_a_at) / Fold change /veh CCDC152 (11751479_a_at) / RFU FAM211A (11726209_a_at) / Fold change /veh FAM211A (11726209_a_at) / RFU RGS16 (11746705_a_at) / Fold change /veh RGS16 (11746705_a_at) / RFU VCAN (11755009_s_at) / Fold change /veh VCAN (11755009_s_at) / RFU RHOB (11743442_s_at) / Fold change /veh RHOB (11743442_s_at) / RFU RGS16 (11720943_a_at) / Fold change /veh RGS16 (11720943_a_at) / RFU RGS16 (11720944_at) / Fold change /veh RGS16 (11720944_at) / RFU, VPS4B / Fold change vs veh, VPS4B / RFU, CREB1 / Fold change vs veh, CREB1 / RFU, DNAJC13 / Fold change vs veh, DNAJC13 / RFU, GNAQ / Fold change vs veh, GNAQ / RFU, CDK5R1 / Fold change vs veh, CDK5R1 / RFU, ZRANB3 / Fold change vs veh, ZRANB3 / RFU, CUL4A / Fold change vs veh, CUL4A / RFU, CCNY / Fold change vs veh, CCNY / RFU, UFL1 / Fold change vs veh, UFL1 / RFU, COG3 / Fold change vs veh, COG3 / RFU, DIAPH2 / Fold change vs veh, DIAPH2 / RFU, SKA2 / Fold change vs veh, SKA2 / RFU, AFF3 / Fold change vs veh, AFF3 / RFU, LMF1 / Fold change vs veh, LMF1 / RFU, IPO11 / Fold change vs veh, IPO11 / RFU, DFFB / Fold change vs veh, DFFB / RFU, FOXP1 / Fold change vs veh, FOXP1 / RFU, CARD8 / Fold change vs veh, CARD8 / RFU, STRN3 / Fold change vs veh, STRN3 / RFU, ADK / Fold change vs veh, ADK / RFU, RASSF2 / Fold change vs veh, RASSF2 / RFU, WIPF1 / Fold change vs veh, WIPF1 / RFU, LARP1B / Fold change vs veh, LARP1B / RFU, RASA1 / Fold change vs veh, RASA1 / RFU, RB1 / Fold change vs veh, RB1 / RFU, PPFIA1 / Fold change vs veh, PPFIA1 / RFU, MAT2A / Fold change vs veh, MAT2A / RFU, CCT5 / Fold change vs veh, CCT5 / RFU, WDR92 / Fold change vs veh, WDR92 / RFU, CUX1 / Fold change vs veh, CUX1 / RFU, TTC7A / Fold change vs veh, TTC7A / RFU, TMEM135 / Fold change vs veh, TMEM135 / RFU, DEPTOR / Fold change vs veh, DEPTOR / RFU, CPM / Fold change vs veh, CPM / RFU, DNAJB6 / Fold change vs veh, DNAJB6 / RFU, CACNA2D3 / Fold change vs veh, CACNA2D3 / RFU, DTX4 / Fold change vs veh, DTX4 / RFU, TFCP2 / Fold change vs veh, TFCP2 / RFU, GMCL1 /// GMCL1P1 / Fold change vs veh, GMCL1 /// GMCL1P1 / RFU, AEBP2 / Fold change vs veh, AEBP2 / RFU, SNHG1 /// SNORD22 /// SNORD25 /// SNORD26 /// SNORD27 /// SNORD28 /// SNORD29 /// SNORD31 / Fold change vs veh, SNHG1 /// SNORD22 /// SNORD25 /// SNORD26 /// SNORD27 /// SNORD28 /// SNORD29 /// SNORD31 / Fold change (Aza/veh), C12orf56 (ProbeSet 11735607_a_at) / Fold change (ACY-1035/veh), C12orf56 (ProbeSet 11735607_a_at) / Fold change (Aza/veh), FGFR1OP (ProbeSet 11751329_s_at) / Fold change (ACY-1035/veh), FGFR1OP (ProbeSet 11751329_s_at) / Fold change (Aza/veh), VPS36 (ProbeSet 11739960_a_at) / Fold change (ACY-1035/veh), VPS36 (ProbeSet 11739960_a_at) / RFU SYPL1 (11715823_x_at) / Fold change /veh SYPL1 (11715823_x_at) / RFU IGFBP7 (11715501_s_at) / Fold change /veh IGFBP7 (11715501_s_at) / RFU REEP3 (11722064_at) / Fold change /veh REEP3 (11722064_at) / RFU IGLL1 (11728026_x_at) / Fold change /veh IGLL1 (11728026_x_at): dose or concentration left out as unconfirmed
Conditions: ProbeSet 11718977_a_at; LIST B

Nc1ccc(-c2cccs2)cc1NC(=O)c1ccc2c(c1)cc(C1CC1)n2CCN1CCOCC1 [ACY-1035]
RFU, CAPN2: 162.48 RFU
